“Also recorded” adds a separate entry of the source. Marks after values point to notes of the source that are not given here.

Test [1] deals with ovalbumin(OA)-induced asthma in guinea pigs. The experiment in a line: Ovalbumin-induced asthma in guinea pigs: inflammatory cells in BAL fluid. The note with it: for Eosinophils / Macrophages / Neutrophils: BAL fluid 24 hours after OV challenge. The test is classed as in vivo, guinea pig. As to the method:
The effect combinations of vitamin C, astaxanthin, and ginkolide on asthma-associated disease parameters ovalbumin(OA)-induced asthma in guinea pigs was evaluated. Twenty-four hours following OA challenge, animals are sacrificed and numbers of inflammatory cells (eosinophils, neutrophils, macrophages) are measured in bronchoalveolar lavage (BAL) fluid; and cAMP and cGMP concentrations in the lung tissue. The experiments were carried out as follows. Male Hartley guinea pigs (250-350 g) were sensitized by intramuscular injections of 0.35 ml of a 5% (W/V) ovalbumin (OA)/saline solution into each thigh on days 1 and 4. Guinea pigs were ready for asthmatic challenge after 25 days of ovalbumin injection. Asthmatic challenge was carried out with ovalbumin aerosol, and bronchoalveolar lavage (BAL) was done 24 hours later. The numbers of eosinophils, neutrophils, and macrophages in the BAL fluid were counted. Twenty-four hours after the aerosol OA challenge, guinea pigs were killed by cervical dislocation and exsanguinated by severing the axillary arteries. Lungs were lavaged with 50 ml of DulBecco's phosphate-buffered saline (aliquots of 10 ml), which were aspirated after gentle chest massage. BAL fluid was centrifuged at 2200 rpm (1100×g) for 10 min, supernatant was aspirated, and pellets were resuspended in 5 ml 0.25% NaCl to lyse residual erythrocytes. This dispersion was centrifuged at 2200 rpm (1100×g) for 10 min, supernatant was aspirated, and pellets were resuspended 5 ml 0.9% NaCl. Total cell counts were done by hemocytometry using trypan blue stain. Slides were prepared on a Shandon Cytospin 2 (Pittsburgh, Pa.) at 300 rpm for 5 min, fixed and stained. Differential cell counts were done using standard morphologic criteria to classify cells as eosinophils, neutrophils, or macrophages, and the results were expressed in cell numbers. The dose-responsive effect of AX, EGb761, and vitamin C administered independently for suppression of asthma-associated parameters in allergen-induced, asthmatic guinea pigs was determined. Ibuprophen (IB) was used as the positive control. Concentration of inflammatory cells in bronchoalveolar lavage (BAL) fluid and levels of cAMP and cGMP in lung tissue were measured in guinea pigs 24 hours following challenge with OV. Data is reported as mean±SD of measurements taken in 6 animals per dosage cohort. *p<0.05 compared to corresponding values of OV antigen-challenged, drug-free control group. The dose-responsive effect of AX, EGb761, and vitamin C administered in combination for suppression of asthma-associated parameters in allergen-induced, asthmatic guinea pigs was determined. The combination of these three components was given each day for each guinea pig as a “cocktail”. Concentration of inflammatory cells in bronchoalveolar lavage (BAL) fluid and levels of cAMP and cGMP in lung tissue were measured in guinea pigs 24 hours following challenge with OV. Data is reported as mean±SD of measurements taken in 6 animals per dosage cohort. *p<0.05 compared to corresponding values of OV antigen-challenged, drug-free control group.

Test [2] has as its system cAMP and cGMP concentrations in the lung tissue. The experiment in a line: Ovalbumin-induced asthma in guinea pigs: cAMP and cGMP in lung tissue (radioimmunoassay). The test is classed as in vivo, guinea pig. The note with it: lung tissue 24 hours after OV challenge. As to the method:
The effect combinations of vitamin C, astaxanthin, and ginkolide on asthma-associated disease parameters ovalbumin(OA)-induced asthma in guinea pigs was evaluated. Twenty-four hours following OA challenge, animals are sacrificed and numbers of inflammatory cells (eosinophils, neutrophils, macrophages) are measured in bronchoalveolar lavage (BAL) fluid; and cAMP and cGMP concentrations in the lung tissue. The experiments were carried out as follows. Male Hartley guinea pigs (250-350 g) were sensitized by intramuscular injections of 0.35 ml of a 5% (W/V) ovalbumin (OA)/saline solution into each thigh on days 1 and 4. Guinea pigs were ready for asthmatic challenge after 25 days of ovalbumin injection. Asthmatic challenge was carried out with ovalbumin aerosol, and bronchoalveolar lavage (BAL) was done 24 hours later. The numbers of eosinophils, neutrophils, and macrophages in the BAL fluid were counted. Biopsies from lung tissues, cAMP and cGMP were measured using commercially available radioimmunoassay kits (Amersham). Immediately after sampling, lung biopsies were frozen by means of a Wollenberger clamp prechilled in liquid nitrogen. Samples were powdered with a pestle and mortar in liquid nitrogen and trichloro acetic acid (TCA) was added to the powdered frozen samples ([…] of tissue). Samples were further homogenized in the frozen TCA in the braying mortar and then centrifuged at 14,000×g for 10 min at 4° C. The supernatants were extracted 6 times in water-saturated diethylether, evaporated and assayed for cGMP by radioimmunoassay using liquid scintillation counter (Packard, Tri-Carb 2100TR). The dose-responsive effect of AX, EGb761, and vitamin C administered independently for suppression of asthma-associated parameters in allergen-induced, asthmatic guinea pigs was determined. Ibuprophen (IB) was used as the positive control. Concentration of inflammatory cells in bronchoalveolar lavage (BAL) fluid and levels of cAMP and cGMP in lung tissue were measured in guinea pigs 24 hours following challenge with OV. […] The dose-responsive effect of AX, EGb761, and vitamin C administered in combination for suppression of asthma-associated parameters in allergen-induced, asthmatic guinea pigs was determined. The combination of these three components was given each day for each guinea pig as a “cocktail”. Concentration of inflammatory cells in bronchoalveolar lavage (BAL) fluid and levels of cAMP and cGMP in lung tissue were measured in guinea pigs 24 hours following challenge with OV.

The test system of test [3] is CD3+HLA-DR+ T lymphocytes in human PBMC. As to the kind of experiment: PHA induction of HLA-DR+ on CD3+ T cells, PBMC from asthma patients (Example 5). The test is classed as cell-based. As to conditions: for SI HLA-DR: PHA 50 μg/ml, 24 hours. How it is done:
(§1) Experiments were carried out to determine whether the immunoregulatory capacity of two commonly-used H1-inhibitory antihistamines: cetirizine dihydrochloride (CTZ/Zyrtec) and azelastine ([…]) is potentiated by the platelet activating factor receptor (PAFR) antagonist and free radical scavenger Ginkgolide B (GB). […] Each drug was first evaluated independently over a 3-log dose range from 10^-8-10^-6 M.

For test [4], the system named is CD3+CD25+ cells in human PBMC. As to the kind of experiment: T lymphocyte activation (CD3+CD25+) in PHA-stimulated PBMC of asthma patients (Example 6). The test is classed as cell-based. The note with it: PHA 50 μg/ml, 24 hours; 10^−5 M. How it is done:
Experiments were carried out to determine whether formulations based on the platelet activating factor receptor (PAFR) antagonist and free radical scavenger Ginkgolide B (GB) in combination with the antioxidant carotenoid astaxanthin (ASX) suppress T cell activation in the same dose range as two commonly-used antihistamines: cetirizine dihydrochloride (CTZ/Zyrtec) and azelastine ([…]). […] Results are reported as stimulation indices (SI) of % CD3+CD25+ cells in cultures treated with PHA alone to % CD3+CD25+ cells in each drug-supplemented culture. […] Subjects for this study included 12 patients diagnosed with atopic asthma, 7 male and 5 female, ranging in age from 21 to 40 years (mean 28±1.8 years). Disease duration ranged from 2 to 12 years. Atopy was defined on the basis of one or more positive skin prick tests to a range of 20 allergens. None of the patients had received systemic therapy for at least 6 weeks prior to blood collection. The mean serum IgE was 335 (170-480) IU/ml. Venous blood for each subject was collected in polyethylene tubes containing EDTA during a one hour morning time interval. PBMC were separated by Ficoll-paque (Pharmacia, Uppsala, Sweden) density gradient centrifugation. Cells were washed and suspended in RPMI 1640 medium (Gibco BRL, Gaithersburg, Md.) at density of 1×10^6 cells/ml. PBMC were stimulated with 50 μg/ml Phytohemaglutinin (PHA) (Sigma Immunopharmaceuticals, St. Lous Mo.), or PHA plus 10^-8-10^-5 M astaxanthin (Natural Alternatives International (NAI) Inc., San Marcos Calif.); or ginkgolide B 10^-8-10^-6 M (NAI San Marcos Calif.); or selected combinations of ASX plus GB. Comparison of ASX and GB effects on T cell activation were made with two other pharmacological agents with anti-asthmatic properties by treating cells with 10^-7-10^-4 M cetirizine dihydrochloride (Pfizer Pharmaceuticals, Norwich Conn.); or 10^-7-10^-4 M azalestine hydrochloride (Wallace Pharmaceuticals, Somerset N.J.), followed by evaluation of cultures for the same biological endpoints as ASX/GB-treated cells. Each reagent was added at the outset of a 24 hours culture period, followed by harvest of cellular fraction for immunophenotyping studies. […] Two-color Flow cytometry was conducted using a Coulter Epics XL automated flow cytometer (Coulter Scientific, Hialeah, Fla., USA). Isotypic controls for the monoclonal antibodies (mAb) used to detect antigens of interest were established for each cell preparation. Positive analysis regions for cells expressing specific surface markers were set against controls and specific binding of fluorophore-conjugated mAb was analyzed by cytofluorography according to standard methods recommended by the manufacturer. Lymphocyte subpopulations were identified by position on forward and side scatter plots and live-gated. Expression of each antigen was reported as percentage cells positive for a particular T cell subpopulation defined by expression of CD3 (T lymphocyte marker) plus CD25, plus or minus standard error. Statistical analysis was performed using an independent t-test. All statistical analyses were performed using the SPSS for Windows statistical package (Norusis/SPSS, Inc.). […] The capacity of formulations evaluated in this study to suppress immune activation was measured as a stimulation index (SI), defined as the ratio of […].

The subject of test [5] is CD3+CD25+ T lymphocytes in human PBMC. As to the kind of experiment: PHA induction of CD25+ on CD3+ T cells, PBMC from asthma patients (Example 5). The test is classed as cell-based. As to conditions: for SI CD25: PHA 50 μg/ml, 24 hours. As to the method: as §1

With `CC(C)Cc1ccc(C(C)C(=O)O)cc1` (centres unmarked) [IB, Ibuprophen, reference compound], the Eosinophils is 5.4 ± 0.8 cell × 10^6/animal in test [1] (10 mg/kg), 4.7 ± 0.6 cell × 10^6/animal in test [1] (100 mg/kg), 3.0 ± 0.8* cell × 10^6/animal in test [1] (500 mg/kg) and 2.9 ± 0.5* cell × 10^6/animal in test [1] (1000 mg/kg). In addition, the Macrophages in test [1] (10 mg/kg) is given as 9.5 ± 0.8 cell × 10^6/animal; in test [1] (100 mg/kg), 9.0 ± 1.3 cell × 10^6/animal; in test [1] (500 mg/kg), 4.7 ± 1.3* cell × 10^6/animal; in test [1] (1000 mg/kg), 4.3 ± 0.9* cell × 10^6/animal. The Neutrophils in test [1] (10 mg/kg) was 5.7 ± 0.7 cell × 10^5/animal; in test [1] (100 mg/kg), 5.0 ± 0.7 cell × 10^5/animal; in test [1] (500 mg/kg), 3.1 ± 0.9* cell × 10^5/animal; in test [1] (1000 mg/kg), 3.1 ± 0.5* cell × 10^5/animal. For the same molecule, the cAMP in test [2] (10 mg/kg) is 7.1 ± 0.6 pmol (mg protein)^−1; in test [2] (100 mg/kg) it was 7.3 ± 0.9 pmol (mg protein)^−1; in test [2] (500 mg/kg), 8.2 ± 0.8 pmol (mg protein)^−1; in test [2] (1000 mg/kg), 8.1 ± 0.9 pmol (mg protein)^−1. In addition, the cGMP in test [2] (10 mg/kg) is reported as 1.1 ± 0.2 pmol (mg protein)^−1; in test [2] (100 mg/kg), 1.1 ± 0.2 pmol (mg protein)^−1; in test [2] (500 mg/kg) it was 1.4 ± 0.2 pmol (mg protein)^−1; in test [2] (1000 mg/kg) it was 1.6 ± 0.2 pmol (mg protein)^−1.
Consider `CN1CCCC(n2nc(Cc3ccc(Cl)cc3)c3ccccc3c2=O)CC1` (centres unmarked) [AZE, azelastine], for which, in test [3] (10^−8 M), the “decrease in SI for HLA-DR” value is reported as 45%. The “SI HLA-DR” value in test [3] (10^−6 M) was 0.61 ± 0.13; in test [3] (10^−7 M), 0.56 ± 0.10; in test [3] (10^−8 M) it was 0.55 ± 0.09. The “SI (CD3+CD25+)” value in test [4] was 0.76±0.12. For the same molecule, the “decrease in SI for CD25+” value in test [5] (10^−8 M) is 19%. Besides, the entries for the “SI CD25” value in test [5] (10^−6 M), in test [5] (10^−7 M) and in test [5] (10^−8 M) were 1.13 ± 0.15, 0.88 ± 0.08 and 0.81 ± 0.08, respectively.
As for `O=C1O[C@H]([C@@H](O)CO)C(O)=C1O` [Vitamin C, ascorbic acid], the Eosinophils in test [1] (50 mg/kg) was 5.5 ± 0.5 cell × 10^6/animal; in test [1] (100 mg/kg), 5.5 ± 0.8 cell × 10^6/animal; in test [1] (200 mg/kg) it was 4.8 ± 1.1 cell × 10^6/animal; in test [1] (400 mg/kg) it was 3.5 ± 0.9* cell × 10^6/animal. Also, the Macrophages in test [1] (50 mg/kg) is 9.5 ± 0.9 cell × 10^6/animal; in test [1] (100 mg/kg) it was 9.8 ± 0.9 cell × 10^6/animal; in test [1] (200 mg/kg) it was 9.2 ± 0.8 cell × 10^6/animal; in test [1] (400 mg/kg) it was 7.2 ± 1.5* cell × 10^6/animal. In addition, the Neutrophils turned out to be 5.4 ± 0.6 cell × 10^5/animal in test [1] (50 mg/kg), 5.6 ± 0.8 cell × 10^5/animal in test [1] (100 mg/kg), 5.0 ± 0.8 cell × 10^5/animal in test [1] (200 mg/kg) and 4.7 ± 0.9 cell × 10^5/animal in test [1] (400 mg/kg). Moreover, the “protection against OV-induced asthma” value in test [1] (components used separately: 10 mg/kg AX, 200 mg/kg vit C, 10 mg/kg GB) is “failed to protect; also recorded: failed to reduce the severity of asthma”. The cAMP is 6.8 ± 0.5 pmol (mg protein)^−1 in test [2] (50 mg/kg), 7.1 ± 0.8 pmol (mg protein)^−1 in test [2] (100 mg/kg), 7.9 ± 0.9 pmol (mg protein)^−1 in test [2] (200 mg/kg) and 7.9 ± 0.8 pmol (mg protein)^−1 in test [2] (400 mg/kg). The cGMP is reported as 1.1 ± 0.2 pmol (mg protein)^−1 in test [2] (50 mg/kg), 1.0 ± 0.2 pmol (mg protein)^−1 in test [2] (100 mg/kg), 1.2 ± 0.2 pmol (mg protein)^−1 in test [2] (200 mg/kg) and 1.5 ± 0.2 pmol (mg protein)^−1 in test [2] (400 mg/kg).

For the origin of these results see patent publication US20060127505A1, “Anti-inflammatory formulations” (priority 2002, published 2006).
